Two molecules from PMC10529921, “Structure–Activity Relationship of Novel ACE Inhibitory Undecapeptides from Stropharia rugosoannulata by Molecular Interactions and Activity Analyses” (Foods, 2023) can be followed below.

Structures can show the parent of a compound that is named as a salt.

For data set [1], the system named is SHR rats. The data set can be described thus: Organ coefficients in SHR rats. The class given is in vivo, rat (SHR). The note with it: 10 mg/kg, single gavage.
Procedure: (§1) Eleven-week-old male SHR rats and Wistar rats (SiPeiFu (Suzhou) Biotechnology Co., Ltd., Suzhou, China) weighing 200–250 g were used. After 7 d of acclimatization feeding, SHR rats and Wistar rats were randomly grouped into 6 rats per group for a single gavage administration treatment. The undecapeptide and the commercial antihypertensive drug Benazepril hydrochloride were administered in a gavage dose of 10 mg/kg body weight (the recommended dose of Benazepril hydrochloride). SHR rats with regular saline treatment were used as the blank control group. The systolic blood pressure (SBP) and diastolic blood pressure (DBP) of rats were monitored by the Softron BP system (Softron BP-2010A, Tokyo, Japan) at 0, 2, 4, 6, 8, and 24 h after drug administration. At the end of the treatment, the organ coefficients were calculated (organ weight as a percentage of the body weight of the rat, mg/g).
(§2) Data from the in vivo tests were presented as means ± standard deviations of 6 measurements.
The subject of a further data set is Wistar rats. Particulars: 10 mg/kg, single gavage; low body weight in two rats given as main reason.
Data set [2] deals with SHR rats. The data set can be described thus: Antihypertensive effect after single gavage in SHR rats. It counts as in vivo, rat (SHR). Particulars: n = 6.
Procedure: as §1, §2
The mark [3] stands for this setting: 10 mg/kg, most significant effect at 8 h, mean ± SD.

Procedure for Wistar rats: as §1, §2

As for `CC(C)C[C@H](NC(=O)[C@@H]1CCCN1C(=O)[C@H](CCCNC(=N)N)NC(=O)[C@H](CC(C)C)NC(=O)[C@H](CCCNC(=N)N)NC(=O)[C@H](CC(=O)O)NC(=O)[C@H](Cc1ccc(O)cc1)NC(=O)[C@H](CC(=O)O)NC(=O)[C@H](CCC(=O)O)NC(=O)[C@H](CCC(N)=O)NC(=O)CN)C(=O)O`, in the data set with SHR rats [1], the “Effect on organs, SHR” value is reported as “less impact on the organs of SHR rats”. Further, in the data set with SHR rats [1] (significance p < 0.05), the “Heart organ coefficient vs blank control, SHR” value is “no significant difference”. In addition, the “Kidney organ coefficient, Wistar” value in the data set on Wistar rats is listed as “considerably higher”.
As for `CCOC(=O)[C@H](CCc1ccccc1)N[C@H]1CCc2ccccc2N(CC(=O)O)C1=O` [Benazepril hydrochloride], the “Blood pressure lowering (SBP and DBP), SHR” value in the data set with SHR rats [2] (10 mg/kg, 2, 4, 6 and 8 h) was “better blood pressure lowering effects after 2, 4, 6, and 8 h”. In addition, in the data set on SHR rats [2] (setting [3]), the “Decrease in DBP, SHR” value is recorded as 39.17 ± 1.81 mmHg and the “Decrease in SBP, SHR” value is listed as 54.94 ± 1.79 mmHg. Further, in the data set on SHR rats [2] (10 mg/kg), the “Rebound of blood pressure values, SHR” value was “began to rebound after 8 h” and the “Time of most significant blood pressure lowering effect, SHR” value was found to be 8 h.
